Series [1] concerns HCT-116 cells. Description: Cellular repair of cyclobutane pyrimidine dimers (cellular NER) after UVC. In kind it is cell-based, human. Particulars: 2 μM. How it is done:
We followed the protocol of Mirzayans et al. ([79]) with minor modifications as previously described ([70]). Inhibitor compounds were dissolved in DMSO and applied to a final DMSO concentration of 0.2% in media and 0.2% DMSO was used as the vehicle control. Mouse anti-thymine dimer monoclonal antibody (cat. no. MC-062, Kamiya Biomedical Company, Seattle, WA) was used for the immunofluorescence following UVC irradiation of the cells and fluorescent microscopic evaluation and measurement of fluorescence intensity were performed using MetaXpress, version 6.2.1.704, software (Molecular Devices, Sunnyvale, California). Data were plotted using GraphPad Prism version 5.04 software.
Immunofluorescent detection of cyclobutane pyrimidine dimers (CPD) generated in the DNA of HCT-116 cells after exposure to UVC radiation was used to measure NER. Our observations that approximately 80% of CPD were removed 24 hours post irradiation in the absence of any inhibitors mirrors previous observations ([70], [79]).

Series [2] concerns HCT-116 cells. Description: Clonogenic survival assay, UV treatment. In kind it is cell-based, human. On the procedure:
HCT-116 cells (100–800 cells depending on the UV dose) were plated in triplicate in 60-mm Petri dishes in DMEM/F12 medium. Following overnight attachment of the cells in a humidified atmosphere containing 5% CO2 at 37°C, the cells were treated with 0.5 μM compound 6 or 10 in DMSO (as described in section 2.7) for 4 h before the medium was removed, and the cells exposed to increasing doses (0–10 J/m^2) of UV-C radiation. The cells were then cultured for a further 24 h in the presence of inhibitor and then for an additional 9 days in the absence of inhibitor to allow for colony formation. Colonies were stained with crystal violet and counted using a Colcount instrument (Oxford Optronix, Abingdon UK) to facilitate determination of plating efficiency and surviving fraction. Data were plotted using GraphPad Prism version 5.04 software.

Series [3] concerns HCT-116 cells. Description: Cytotoxicity assay using colony forming assay. Type of series: cell-based, human. Particulars: 0.5 μM. On the procedure: HCT-116 cells were incubated with media containing a non-toxic concentration of 6 or 10 ( Supplementary Figure 3 ) prior to exposure to the DNA damaging agents. […]
nitrocellulose. Proteins were visualized using ERCC1 (A73368-100, 1:1000; EpiGentek), XPF (LS- […]
primary antibodies followed by secondary anti-mouse or anti-rabbit secondary HRP-conjugated secondary antibodies. ECL chemiluminescent substrate (Promega) was used to detect the proteins.
Supplementary Figure 3. Cytotoxicity assay using colony forming assay
4 HCT-116 Derived XPF Knockout Cells
For CRISPR deletion of XPF from HCT-116 cells, the pSpCas9(BB)-2A-GFP (pX458) vector (Addgene plasmid # 48138) was used. The short guide sequence to target XPF exon one was: 5'- […]
- 3' and target XPF exon eight was: 5'-
-3'. All short guide sequences oligonucleotides were synthesized, annealed and cloned into pX458 vector and were confirmed by DNA sequencing at DNA laboratory, University of Calgary. The DNA plasmid (pX458 containing XPF short guide RNA sequence, 5 µg) was transfected into HCT-116 cells using Lipofectamine 2000 (Invitrogen) according to the manufacturer’s instructions. Forty-eight hours after transfection, cells were harvested and genomic DNA was isolated using the KAPA Express Extract Kit (Kapa Biosystems) according to the manufacturer’s instructions. […]

The nature of series [4]: Distribution coefficient (log D at pH 7.4). In kind it is physicochemical. On the procedure: (§1) The ADME (absorption, distribution, metabolism, and excretion) profile of our lead compound 6 was determined by standard protocols carried out by WuXi AppTec (Shanghai) Co (https://www.wuxiapptec.com/). The following tests were conducted: distribution coefficient (log D at pH 7.4), aqueous solubility (Kinetic), metabolic stability in human liver microsomes and cryopreserved human hepatocytes, bidirectional permeability in Caco-2 cells, serum protein binding, and cytochrome P450 (CYP) inhibition (CYP1A2, CYP2C9, CYP2C19, CYP2D6, and CYP3A4-M).

A further series addresses T1, CYP1A2 (Homo sapiens, UniProt P05177).
T1 sequence (P05177 1-516): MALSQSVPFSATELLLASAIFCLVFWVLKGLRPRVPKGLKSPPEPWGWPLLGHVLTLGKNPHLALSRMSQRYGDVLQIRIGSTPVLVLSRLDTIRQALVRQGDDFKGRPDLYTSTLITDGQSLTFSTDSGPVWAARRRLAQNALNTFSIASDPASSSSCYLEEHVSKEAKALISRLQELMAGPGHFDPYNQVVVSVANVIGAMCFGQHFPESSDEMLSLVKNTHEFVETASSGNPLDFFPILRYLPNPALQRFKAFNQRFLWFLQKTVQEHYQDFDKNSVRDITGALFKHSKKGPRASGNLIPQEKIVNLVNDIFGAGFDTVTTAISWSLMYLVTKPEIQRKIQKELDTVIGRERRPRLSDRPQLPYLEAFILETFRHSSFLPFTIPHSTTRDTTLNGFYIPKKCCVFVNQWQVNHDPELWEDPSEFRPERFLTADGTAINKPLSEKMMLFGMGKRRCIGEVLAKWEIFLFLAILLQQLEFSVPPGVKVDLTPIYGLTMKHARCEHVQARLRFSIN
Description: Cytochrome P450 inhibition, CYP1A2. Type of series: in vitro ADME. On the procedure: as §1

As usually defined, the logD is lipophilicity at a set pH, counting ionised and neutral species. For orientation: IC50 means the point on the concentration scale where inhibition reaches its midpoint. The low end stands for greater potency in that assay, the high end for weaker potency in that assay. In the case of `COc1ccc2nc3cc(Cl)ccc3c(Nc3ccc(O)c(CN4CCN(CCN(C(C)C)C(C)C)CC4)c3)c2c1` [Compound 6], the “effect on CPD removal / cellular NER (in words)” value in the series with HCT-116 cells [1] was “significant inhibition of NER”. Also, the “sensitization to UVC radiation (in words)” value with HCT-116 cells [2] (0.5 μM) was “sensitized cells to UVC radiation”. In the series with HCT-116 cells [2] (0.5 μM compound, 4 J/m^2 UVC), the “cell survival after UVC” value is given as less than 50%. For the same compound, the “toxicity of the concentration used (in words)” value with HCT-116 cells [3] is “non-toxic”. In series [4], this compound gave a logD of 3.95. Further, at CYP1A2, the “CYP1A2 inhibition grade (in words)” value was “moderate inhibitor” and the midpoint of inhibition, the IC50, lay at 6.51 µM.

The values above are taken from PMC8968952, “Modulation of ERCC1-XPF Heterodimerization Inhibition via Structural Modification of Small Molecule Inhibitor Side-Chains” (Frontiers in Oncology, 2022).
